Data taken from patent US20150250166A1, “NOOTKATONE AS AN INSECTICIDE AND INSECT REPELLENT” (ALLYLIX, INC., priority 2012, published 2015).

Key:
Format in all cases: in vivo
[1] = tested on: adult cat fleas (Ctenocephalides felis); experiment: Cat flea repellency, treated versus untreated paper towel halves in payliner; settings: for Percent Repellency (corrected for isopropanol control) / cat fleas on 10% Nootkatone-treated paper towel, average count of five trials (of 10): 10% nootkatone, 0.1% BHT in isopropanol
Description: A formulation, containing 10% nootkatone, 0.1% butylated hydroxytoluene (BHT) in isopropanol was tested for efficacy for repelling adult cat fleas (Ctenocephalides felis). Equal amounts of 10% nootkatone solution, stored at ambient temperature and humidity, were applied to five semi-circular pieces of paper towels, arranged so that they were evenly spaced on a sheet of aluminum foil, until sufficiently wet to the touch. Five untreated semi-circular pieces were marked with the letter “c”, for control, on both sides in pencil or solvent resistant ink. Each of the semi-circular pieces of paper towel had the diameter of a 5-gallon payliner. Immediately after spraying the paper towels with the nootkatone solution, the treated towels were placed in 5 5-gallon payliners. The untreated semi-circular paper towels were also placed in the payliners, with the flat sides of the semi-circle side-by-side with those of the treated pieces, so that the bottoms of the payliners were completely covered with paper towel, half treated and half untreated. Five additional payliners with one semi-circular paper towel treated with isopropyl alcohol and the other untreated served as controls. A 9 dram vial, containing 10 cat fleas (El Labs Inc (Soquel, Calif.)) was emptied onto each of the untreated paper towels in the payliners (total of 10 payliners). The distribution of the cat fleas on the control vs. treated paper towels was recorded at 0.5, 1, 1.5, 2, and 24 hours. Observations were made quietly to minimize the disturbance to the fleas by the observer. The containers were kept at ambient temperature and humidity for the duration of the study. The repellency was calculated from the following equation: R=[(C−T)/C]*100, where R is the % repellency, C is the fraction of fleas on the isopropanol-treated paper towel pieces, and T is the fraction of fleas on the nootkatone-treated paper towel pieces.

[2] = tested on: adult bed bugs (Cimex lectularius); experiment: Direct spray knockdown of adult bed bugs; settings: for bed bug knockdown activity, in words: early time points; for bed bugs exhibiting knockdown, average count of 5 trials (of 10): 10% nootkatone, 0.1% BHT in isopropanol
Description: (§1) A direct spray formulation, containing 10% nootkatone (from Bedoukian Research, Inc., Product No. 800; Danbury, Conn.), 0.1% butylated hydroxytoluene (BHT) in isopropanol, stored at ambient temperature and humidity, was tested for efficacy for knockdown and mortality among adult bed bugs (Cimex lectularius). Adult bed bugs (ICR, Baltimore, Md.) used in this study were blood fed within 7 days of testing. The bed bugs were anesthetized with CO2 and five groups of ten bed bugs were transferred into 9 dram vials at least 2 hours prior to testing. Just prior to treatment, the bed bugs were transferred to 16 oz. paper solo cups with cloth glued to the bottom on the inside of the cup and a screened lid. Each replicate was then sprayed manually, using a 2-3 oz. pump sprayer, with 1 gram±0.1 grams of the 10% nootkatone formulation. Each replicate was sprayed separately from a vertical distance of 6 inches above the bed bugs. The spray bottle was weighed before and after treating each replicate to confirm the weight of the test sample dispensed. All spraying took place in a vented, stainless steel Peet Grady chamber (6×6×6 ft). […] Knockdown was defined as the inability of a bed bug to right itself when placed on its back. After the five minute time point, the bed bugs were transferred to recovery containers that hold 16 oz. paper solo cups equipped with screened lids. A further knockdown study took place at 15 minutes post treatment. Serving as control samples, five replicates of 10 adult bed bugs were treated with isopropyl alcohol alone and five replicates of 10 adult bed bugs were treated with water, following the protocol outlined above.
(§2) A direct spray formulation, containing 5% nootkatone (from Bedoukian Research, Inc., Product No. 800; Danbury, Conn.), 0.1% butylated hydroxytoluene (BHT) in acetone, stored at ambient temperature and humidity, was tested for efficacy for knockdown and mortality among adult bed bugs (Cimex lectularius) using the same procedure as described in Example 1 above. Five replicates of ten bed bugs were sprayed with 1.0 g±20% of a 5% nootkatone in acetone solution stabilized with 0.1% BHT. An additional five replicates were treated with 1.0 g±20% of tap water to serve as a control.

[3] = tested on: adult bed bugs (Cimex lectularius); experiment: Bed bug repellency, treated versus untreated filter paper halves in Petri dish chamber; settings: for Repellency (%) Treatment Group / bed bugs on Nootkatone treatment filter paper (count, of 50) / Repellency (summary of bedbug repellency): 0.1% BHT; for Repellency (summary of bedbug repellency): Day 1
[4] = tested on: adult bed bugs (Cimex lectularius); experiment: Direct spray mortality of adult bed bugs; settings: for bed bug mortality, in words: within the 15 minute knockdown study; for Alive, Treatment (bed bug count, of 50) / Dead, Treatment (bed bug count, of 50) / Moribund, Treatment (bed bug count, of 50): 5% nootkatone, 0.1% BHT in acetone
Description: as §1
After the knockdown counts were complete, the bed bugs were maintained in treatment chambers, in the laboratory at ambient light, temperature, and humidity conditions. Mortality counts were made at 24 and 48 hours post treatment. […] Table 4 below provides the average mortality data for the five replicates of bed bugs treated with water, isopropanol alone, or with 10% nootkatone in isopropanol at 24 and 48 hours.
as §2
After the knockdown counts were complete, the bed bugs were maintained in treatment chambers, in the laboratory at ambient light, temperature, and humidity conditions. Mortality counts were made at 1, 2, 3, 4 and 5 days post treatment. […] Table 5 below provides the mortality data for the replicates of bed bugs treated with water (control) or with 5% nootkatone in acetone.

[5] = 0.50% nootkatone in acetone, Day 1, 0.5 hour
[6] = time 1 (head: Minutes; text: days post treatment)
[7] = time 2 (head: Minutes; text: days post treatment)
[8] = time 3 (head: Minutes; text: days post treatment)
[9] = time 4 (head: Minutes; text: days post treatment)
[10] = time 5 (head: Minutes; text: days post treatment)
[11] = 10% nootkatone in isopropanol, 24 hr post treatment
[12] = 10% nootkatone in isopropanol, 48 hr post treatment

C=C(C)[C@@H]1CCC2=CC(=O)C[C@@H](C)[C@]2(C)C1 [nootkatone, 4,4a,5,6,7,8-hexahydro-6-isopropenyl-4,4a-dimethyl-2(3H)-naphtalenone]
cat flea repellency, in words ([1]; 10% nootkatone in isopropyl alcohol): does not repel cat fleas | Percent Repellency (corrected for isopropanol control) ([1]; 0.5 hr): −40.0% | cat fleas on 10% Nootkatone-treated paper towel, average count of five trials (of 10) ([1]; 0.5 hr): 5.6 | Percent Repellency (corrected for isopropanol control) ([1]; 1 hr): 9.5% | cat fleas on 10% Nootkatone-treated paper towel, average count of five trials (of 10) ([1]; 1 hr): 3.8 | Percent Repellency (corrected for isopropanol control) ([1]; 1.5 hr): 9.5% | cat fleas on 10% Nootkatone-treated paper towel, average count of five trials (of 10) ([1]; 1.5 hr): 3.8 | Percent Repellency (corrected for isopropanol control) ([1]; 2 hr): 20.0% | cat fleas on 10% Nootkatone-treated paper towel, average count of five trials (of 10) ([1]; 2 hr): 3.2 | Percent Repellency (corrected for isopropanol control) ([1]; 24 hr): 38.9% | cat fleas on 10% Nootkatone-treated paper towel, average count of five trials (of 10) ([1]; 24 hr): 2.2 | bed bug knockdown compared with control, in words ([2]; 5% nootkatone in acetone, 15 minutes): no greater effect on bed bug knockdown than that observed for the control | bed bug knockdown activity, in words ([2]; 5% nootkatone in acetone): some knockdown activity | bed bug knockdown compared with isopropanol alone, in words ([2]; 10% nootkatone in isopropanol, 15 minutes): no greater effect on bed bug knockdown than that observed for isopropanol alone | bed bug knockdown activity, in words ([2]; 10% nootkatone in isopropanol): some knockdown activity | bed bugs exhibiting knockdown, average count of 5 trials (of 10) ([2]; 0.5 min post treatment): 1.6 | bed bugs exhibiting knockdown, average count of 5 trials (of 10) ([2]; 1 min post treatment): 2.6 | bed bugs exhibiting knockdown, average count of 5 trials (of 10) ([2]; 2 min post treatment): 4.6 | bed bugs exhibiting knockdown, average count of 5 trials (of 10) ([2]; 3 min post treatment): 5 | bed bugs exhibiting knockdown, average count of 5 trials (of 10) ([2]; 4 min post treatment): 4.6 | bed bugs exhibiting knockdown, average count of 5 trials (of 10) ([2]; 5 min post treatment): 4.8 | bed bugs exhibiting knockdown, average count of 5 trials (of 10) ([2]; 15 min post treatment): 4.4 | Repellency (%) Treatment Group ([3]; 0.01% nootkatone in acetone, Day 1, 1.0 hour): 66.0% | bed bugs on Nootkatone treatment filter paper (count, of 50) ([3]; 0.01% nootkatone in acetone, Day 1, 24.0 hour): 21 | bedbug repellency, in words ([3]; 0.01% nootkatone in acetone, day 1 and day 2, statistically significant versus the control): moderate bedbug repellency | Repellency (%) Treatment Group ([3]; 0.10% nootkatone in acetone, Day 1, 0.5 hour): 94.0% | Repellency (%) Treatment Group ([3]; 0.10% nootkatone in acetone, Day 1, 2.0 hour): 94.0% | bedbug repellency, in words ([3]; 0.1% nootkatone in acetone, day one): good bedbug repellent for one day | Repellency (%) Treatment Group [3, 5]: 100.0% | bed bugs on Nootkatone treatment filter paper (count, of 50) [3, 5]: 0 | bed bugs on Nootkatone treatment filter paper (count, of 50) ([3]; 0.50% nootkatone in acetone, Day 1, Average of time points): 0.0 | Repellency (%) Treatment Group ([3]; 0.50% nootkatone in acetone, Day 2, 1.0 hour): 88.0% | bed bugs on Nootkatone treatment filter paper (count, of 50) ([3]; 0.50% nootkatone in acetone, Day 2, Average of time points): 4.2 | bedbug repellency, in words ([3]; 0.5% nootkatone in acetone, two days): good bedbug repellent for two days | Repellency (summary of bedbug repellency) ([3]; Nootkatone 0.010% in acetone): 66.0% | Repellency (summary of bedbug repellency) ([3]; Nootkatone 0.10% in acetone): 93.6% | bed bug mortality compared with control, in words ([4]; 5% nootkatone in acetone, 5 days): did not kill bed bugs after 5 days above mortality levels observed for the control | bed bug mortality, in words ([4]; 5% nootkatone in acetone): No mortality was observed | Alive, Treatment (bed bug count, of 50) [4, 6]: 50 | Dead, Treatment (bed bug count, of 50) [4, 6]: 0 | Moribund, Treatment (bed bug count, of 50) [4, 6]: 0 | Alive, Treatment (bed bug count, of 50) [4, 7]: 49 | Dead, Treatment (bed bug count, of 50) [4, 7]: 1 | Moribund, Treatment (bed bug count, of 50) [4, 7]: 0 | Alive, Treatment (bed bug count, of 50) [4, 8]: 48 | Dead, Treatment (bed bug count, of 50) [4, 8]: 1 | Moribund, Treatment (bed bug count, of 50) [4, 8]: 1 | Alive, Treatment (bed bug count, of 50) [4, 9]: 45 | Dead, Treatment (bed bug count, of 50) [4, 9]: 2 | Moribund, Treatment (bed bug count, of 50) [4, 9]: 3 | Alive, Treatment (bed bug count, of 50) [4, 10]: 42 | Dead, Treatment (bed bug count, of 50) [4, 10]: 5 | Moribund, Treatment (bed bug count, of 50) [4, 10]: 3 | bed bug mortality compared with isopropanol alone, in words ([4]; 10% nootkatone in isopropanol, 24 or 48 hours): did not kill bed bugs after 24 or 48 hours above mortality levels observed for isopropanol alone | Alive, average bed bug count of 5 trials (of 10) [4, 11]: 6.4 | Dead, average bed bug count of 5 trials (of 10) [4, 11]: 3.6 | Moribund, average bed bug count of 5 trials (of 10) [4, 11]: 0 | Alive, average bed bug count of 5 trials (of 10) [4, 12]: 5.2 | Dead, average bed bug count of 5 trials (of 10) [4, 12]: 4.8 | Moribund, average bed bug count of 5 trials (of 10) [4, 12]: 0 | bed bug mortality, in words ([4]; 10% nootkatone in isopropanol): No mortality was observed
